According to the NIST ThermoML archive (doi:10.1021/acs.jced.9b00536):

Assay: wn = mass fraction of the nth substance listed
Settings: 100 kPa, Liquid, Vibrating tube method

[Na+].[OH-] [sodium hydroxide] + O
mass density [kg/m3]
Settings	303.15 K	313.15 K	323.15 K	333.15 K	343.15 K	353.15 K
w1 = 0.2	1213.8	1208	1202.1	1196.1	1190	1184.4
w1 = 0.21	1223.5	1219	1213	1206.8	1200.5	1194
w1 = 0.22	1236.2	1230.3	1224.3	1218.1	1212	1206.4
w1 = 0.23	1246.1	1240.2	1234.1	1227.9	1221.8	1216.2
w1 = 0.24	1256.6	1250.6	1244.4	1238.3	1232.2	1226.7
w1 = 0.25	1268	1262	1256	1249.5	1243	1236.5
w1 = 0.26	1279.4	1273.3	1267.1	1260.8	1254.6	1249
w1 = 0.27	1289.2	1283	1276.7	1270.3	1264.1	1258.3
w1 = 0.28	1299	1293.7	1287.4	1281	1274.7	1269.1
w1 = 0.29	1311	1304.5	1298.5	1292	1285.5	1278.5
w1 = 0.3	1321.7	1315.4	1308.9	1302.4	1295.9	1289.9
w1 = 0.31	1330.9	1324.5	1318	1311.4	1304.9	1298.7
w1 = 0.32	1343.4	1337	1330.4	1323.8	1317.2	1311.1
w1 = 0.33	1353.5	1347	1340.4	1333.7	1327.1	1321
w1 = 0.34	1364.3	1357.8	1351.1	1344.4	1337.8	1331.6
w1 = 0.35	1372.5	1365.9	1359.2	1352.5	1345.9	1339.8
w1 = 0.36	1381.8	1375.5	1369	1362.9	1356.8	1349.8
w1 = 0.37	1393.6	1386.8	1380	1373.2	1366.5	1360.2
w1 = 0.38	1403.3	1396.5	1389.6	1382.8	1376.1	1369.9
w1 = 0.39	1413.5	1406.5	1400	1393	1386	1379.5
w1 = 0.4	1423.3	1416.3	1409.3	1402.4	1395.6	1389.6
w1 = 0.41	1432.9	1425.9	1418.9	1412	1405.1	1398.7
w1 = 0.42	1443.2	1436.2	1429.2	1422.2	1415.4	1409
w1 = 0.43	1452.9	1445.8	1438.8	1431.8	1425	1418.6
w1 = 0.44	1460.9	1453.8	1446.7	1439.7	1432.8	1426.3
w1 = 0.45	1470.7	1463.5	1456.5	1449.5	1442.6	1436.2
w1 = 0.46	1479.6	1472.7	1465.9	1459	1451.5	1445.2
w1 = 0.47	1489.7	1482.5	1475.3	1468.3	1461.4	1454.8
w1 = 0.48	1499.9	1492.6	1485.4	1478.3	1471.4	1465
w1 = 0.49	1509.4	1502.1	1494.9	1487.9	1481	1474.6
w1 = 0.5	1518.4	1511.1	1503.9	1496.9	1490	1483.6
